Measurements published in patent publication US12545673B2, “Imidazopyridine derivative and pharmaceutical composition comprising same as active ingredient” (TSD LIFE SCIENCES CO., LTD., priority 2019, dated 2026).
pIC50: −log10 of the molar value. Like-named read-outs stand apart in the source and are kept apart here.

Experiments:
MLK3 = MLK3 (Homo sapiens (Human), UniProt Q16584); test: Evaluation of inhibitory activity of enzyme units, MLK3 ([γ-33P]-ATP filter assay); conditions: for IC50: read-out: IC50(nM) MLK3
Chain of MLK3 (Q16584 whole entry, looked up): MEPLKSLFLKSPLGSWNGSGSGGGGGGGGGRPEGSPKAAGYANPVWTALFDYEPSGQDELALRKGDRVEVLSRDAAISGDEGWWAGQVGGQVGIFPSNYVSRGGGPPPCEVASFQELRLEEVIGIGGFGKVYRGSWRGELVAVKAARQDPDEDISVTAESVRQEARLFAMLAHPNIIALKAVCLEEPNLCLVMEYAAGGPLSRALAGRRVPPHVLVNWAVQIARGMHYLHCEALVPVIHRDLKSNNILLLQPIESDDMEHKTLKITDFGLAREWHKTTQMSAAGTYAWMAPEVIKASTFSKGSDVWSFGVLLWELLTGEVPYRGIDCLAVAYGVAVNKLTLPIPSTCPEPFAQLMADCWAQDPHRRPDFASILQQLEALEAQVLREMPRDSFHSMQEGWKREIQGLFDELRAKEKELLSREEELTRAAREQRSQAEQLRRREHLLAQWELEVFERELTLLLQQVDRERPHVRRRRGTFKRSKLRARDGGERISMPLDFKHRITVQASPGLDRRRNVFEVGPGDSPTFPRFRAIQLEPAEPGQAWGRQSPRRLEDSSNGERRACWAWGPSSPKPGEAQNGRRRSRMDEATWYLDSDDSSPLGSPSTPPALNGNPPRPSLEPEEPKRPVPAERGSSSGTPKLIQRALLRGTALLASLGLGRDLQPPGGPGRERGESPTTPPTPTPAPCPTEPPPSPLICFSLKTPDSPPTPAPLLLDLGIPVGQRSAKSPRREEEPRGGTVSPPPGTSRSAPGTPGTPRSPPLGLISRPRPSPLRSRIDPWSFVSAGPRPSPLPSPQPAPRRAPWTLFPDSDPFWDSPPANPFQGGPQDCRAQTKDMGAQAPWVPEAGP

[1] = system: acute myeloid leukemia cell line U937; test: Cancer cell proliferation inhibitory activity evaluation 2 (CCK-8), U937; assay type: cell-based; conditions: Homo sapiens, read-out: Cancer cell proliferation inhibitory activity U937
[2] = system: human breast cancer cell line MDA-MB-231; test: Cancer cell proliferation inhibitory activity evaluation 1 (CCK-8), MDA-MB-231; assay type: cell-based; conditions: MDA-MB-231, 10 μM, 72 hours, CCK-8, read-out: Cancer cell proliferation inhibitory activity MDAMB231
Description: (§1) In order to identify whether the compound has anticancer activity, the human breast cancer cell line MDA-MB-231, the colorectal cancer cell line HT-29, the acute myeloid leukemia cell line U937, and the chronic myeloid leukemia cell line K562 were used. The cell line was cultured using RPMI-1640 medium containing 10% fetal bovine serum. Welgene products were used as the medium, and hyclone products were used for fetal bovine serum, and 1% of antibiotics for cell culture from Gibco were used as the culture medium.

[3] = system: acute myeloid leukemia cell line U937; test: Cancer cell proliferation inhibitory activity evaluation 1 (CCK-8), U937; assay type: cell-based; conditions: Homo sapiens, U-937; 10 μM, 72 hours, CCK-8 (Table 2); read-out: Cancer cell proliferation inhibitory activity U937
Description: as §1

[4] = system: acute lymphoblastic leukemia cell line Jurkat; test: Cancer cell proliferation inhibitory activity evaluation 2 (CCK-8), Jurkat; assay type: cell-based; conditions: Homo sapiens
[5] = system: gastric cancer cell line AGS; test: Cancer cell proliferation inhibitory activity evaluation 2 (CCK-8), AGS; assay type: cell-based; conditions: Homo sapiens, read-out: Cancer cell proliferation inhibitory activity AGS
[6] = system: colorectal cancer cell line HT-29; test: Cancer cell proliferation inhibitory activity evaluation 1 (CCK-8), HT-29; assay type: cell-based; conditions: Homo sapiens, HT-29; 10 μM, 72 hours, CCK-8; read-out: Cancer cell proliferation inhibitory activity HT29
Description: as §1

[7] = system: chronic myeloid leukemia cell line K562; test: Cancer cell proliferation inhibitory activity evaluation 1 (CCK-8), K562; assay type: cell-based; conditions: Homo sapiens, K562; 10 μM, 72 hours, CCK-8; read-out: Cancer cell proliferation inhibitory activity K562
Description: as §1

LRRK2 wild-type = LRRK2 wild-type (Homo sapiens (Human), UniProt Q5S007); test: Evaluation of inhibitory activity against LRRK2 (affinity bead competition binding), wild-type; conditions: read-out: Residual active values (%) LRRK2; for remaining binding at 0.1 µM: 100 nM; for remaining binding at 0.5 µM: 500 nM
Chain of LRRK2 wild-type (Q5S007 whole entry, looked up): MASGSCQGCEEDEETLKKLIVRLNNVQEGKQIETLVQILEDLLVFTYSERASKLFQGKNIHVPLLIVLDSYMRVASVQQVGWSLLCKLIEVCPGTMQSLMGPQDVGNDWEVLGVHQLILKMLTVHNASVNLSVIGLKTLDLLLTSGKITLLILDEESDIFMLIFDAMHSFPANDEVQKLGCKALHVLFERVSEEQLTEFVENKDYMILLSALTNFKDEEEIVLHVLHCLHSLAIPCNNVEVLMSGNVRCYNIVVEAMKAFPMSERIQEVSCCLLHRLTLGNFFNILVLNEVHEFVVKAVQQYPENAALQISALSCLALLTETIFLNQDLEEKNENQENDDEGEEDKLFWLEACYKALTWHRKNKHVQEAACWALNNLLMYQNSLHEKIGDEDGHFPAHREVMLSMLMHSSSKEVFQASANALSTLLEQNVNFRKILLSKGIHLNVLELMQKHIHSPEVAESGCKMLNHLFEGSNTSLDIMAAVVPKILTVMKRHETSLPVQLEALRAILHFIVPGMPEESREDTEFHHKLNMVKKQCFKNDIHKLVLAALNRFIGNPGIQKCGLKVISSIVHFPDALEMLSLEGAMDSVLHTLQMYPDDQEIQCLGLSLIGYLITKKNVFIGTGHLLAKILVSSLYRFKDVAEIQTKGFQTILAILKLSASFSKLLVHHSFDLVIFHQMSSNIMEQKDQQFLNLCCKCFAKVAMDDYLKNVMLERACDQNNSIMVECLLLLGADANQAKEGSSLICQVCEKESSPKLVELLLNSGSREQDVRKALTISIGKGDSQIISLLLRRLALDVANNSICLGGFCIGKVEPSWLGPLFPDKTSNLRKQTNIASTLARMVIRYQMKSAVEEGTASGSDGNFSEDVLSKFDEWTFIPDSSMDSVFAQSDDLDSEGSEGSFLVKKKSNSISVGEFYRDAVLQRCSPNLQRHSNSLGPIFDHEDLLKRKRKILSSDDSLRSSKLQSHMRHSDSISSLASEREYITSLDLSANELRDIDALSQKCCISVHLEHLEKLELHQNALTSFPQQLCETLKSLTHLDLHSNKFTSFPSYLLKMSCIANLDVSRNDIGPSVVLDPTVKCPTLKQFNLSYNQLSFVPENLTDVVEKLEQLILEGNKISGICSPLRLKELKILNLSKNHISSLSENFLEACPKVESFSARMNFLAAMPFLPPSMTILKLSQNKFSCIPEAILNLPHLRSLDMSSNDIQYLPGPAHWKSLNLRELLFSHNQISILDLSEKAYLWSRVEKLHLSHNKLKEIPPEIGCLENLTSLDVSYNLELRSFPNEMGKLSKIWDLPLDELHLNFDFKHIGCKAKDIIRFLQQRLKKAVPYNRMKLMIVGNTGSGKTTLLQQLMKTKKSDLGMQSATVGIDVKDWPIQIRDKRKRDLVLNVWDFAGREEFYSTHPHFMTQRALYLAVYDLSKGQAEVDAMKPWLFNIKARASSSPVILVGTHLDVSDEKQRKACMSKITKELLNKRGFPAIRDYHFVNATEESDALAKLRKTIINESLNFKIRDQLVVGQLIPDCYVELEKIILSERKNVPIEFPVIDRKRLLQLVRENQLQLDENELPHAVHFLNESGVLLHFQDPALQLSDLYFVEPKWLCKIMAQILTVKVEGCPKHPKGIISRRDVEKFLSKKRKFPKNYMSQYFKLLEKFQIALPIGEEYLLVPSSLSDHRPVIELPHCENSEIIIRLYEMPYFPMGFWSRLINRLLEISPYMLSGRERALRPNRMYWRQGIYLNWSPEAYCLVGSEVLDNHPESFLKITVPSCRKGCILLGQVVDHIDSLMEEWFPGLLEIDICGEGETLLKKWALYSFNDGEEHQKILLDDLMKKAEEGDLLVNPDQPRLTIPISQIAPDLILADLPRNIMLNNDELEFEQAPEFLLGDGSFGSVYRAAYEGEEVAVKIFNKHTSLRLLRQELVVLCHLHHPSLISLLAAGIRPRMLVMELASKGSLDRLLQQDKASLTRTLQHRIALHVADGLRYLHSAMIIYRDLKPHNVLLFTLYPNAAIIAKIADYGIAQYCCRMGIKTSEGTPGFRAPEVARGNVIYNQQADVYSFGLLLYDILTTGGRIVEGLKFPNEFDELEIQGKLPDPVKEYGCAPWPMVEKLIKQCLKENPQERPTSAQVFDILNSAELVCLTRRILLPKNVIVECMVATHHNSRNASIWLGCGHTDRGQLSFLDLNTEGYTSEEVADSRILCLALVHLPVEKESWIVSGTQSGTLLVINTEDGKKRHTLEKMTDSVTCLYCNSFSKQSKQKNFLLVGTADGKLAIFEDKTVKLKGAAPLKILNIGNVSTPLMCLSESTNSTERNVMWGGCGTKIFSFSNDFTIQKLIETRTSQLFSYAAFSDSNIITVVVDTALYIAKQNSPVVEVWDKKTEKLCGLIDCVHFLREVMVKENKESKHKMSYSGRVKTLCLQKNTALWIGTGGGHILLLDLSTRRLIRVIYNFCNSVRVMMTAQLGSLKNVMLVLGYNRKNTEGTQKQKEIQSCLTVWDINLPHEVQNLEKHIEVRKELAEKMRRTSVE
Description: (§2) In order to identify the activity inhibitory effect on the LRRK2 wild-type and LRRK2 mutant (G2019S) kinase of the example compound according to the present disclosure, BL21-derived E. coli bacteria (E. coli) were cultured in a 24-well plate until the growth phase (log phase). After culturing, T7 phage tagged with LRRK2 wild-type or LRRK2 mutant (G2019S) was used to infect the multiplicity of infection (MOI) at 0.4. Thereafter, the E. coli bacteria were stirred at 32° C. for 90 to 150 minutes to allow dissolution. The lysate of E. coli bacteria was centrifuged (6,000×g) and filtered (0.2 μm), and the obtained tagged T7 phage […] a DNA-tagged kinase protein (LRRK2 or LRRK2 G2019S) was obtained.
(§3) After blocking the biotinylated ligand with extra biotin, it is washed with Pierce's buffer, SeaBlock (1% BSA, 0.05% Tween 20, 1 mM DTT) to remove unbound ligand and reduce non-specific binding.
(§4) The compound was prepared at a concentration of 40× in 100% DMSO and used after dilution, and all binding reactions were performed in a final volume of 0.02 ml in a 384-well plate.
(§5) The activity inhibitory effect on the LRRK2 wild-type and LRRK2 mutant (G2019S) kinases of the example compounds according to the present disclosure was measured and shown in Table 10 below.

LRRK2 mutant (G2019S) = LRRK2 mutant (G2019S) (Homo sapiens (Human), UniProt Q5S007, G2019S); test: Evaluation of inhibitory activity against LRRK2 (affinity bead competition binding), G2019S mutant; conditions: read-out: Residual active values (%) LRRK2(G2019S); for remaining binding at 0.1 µM: 100 nM; for remaining binding at 0.5 µM: 500 nM
Chain of LRRK2 mutant (G2019S) (Q5S007 whole entry G2019S, looked up): as the sequence (Q5S007 whole entry, looked up) above, with G2019S counted along it
Description: as §2, §3, §4, §5

MLK1 = MLK1 (Homo sapiens (Human), UniProt P80192); test: Evaluation of inhibitory activity of enzyme units, MLK1 ([γ-33P]-ATP filter assay); assay type: biochemical
Chain of MLK1 (P80192 whole entry, looked up): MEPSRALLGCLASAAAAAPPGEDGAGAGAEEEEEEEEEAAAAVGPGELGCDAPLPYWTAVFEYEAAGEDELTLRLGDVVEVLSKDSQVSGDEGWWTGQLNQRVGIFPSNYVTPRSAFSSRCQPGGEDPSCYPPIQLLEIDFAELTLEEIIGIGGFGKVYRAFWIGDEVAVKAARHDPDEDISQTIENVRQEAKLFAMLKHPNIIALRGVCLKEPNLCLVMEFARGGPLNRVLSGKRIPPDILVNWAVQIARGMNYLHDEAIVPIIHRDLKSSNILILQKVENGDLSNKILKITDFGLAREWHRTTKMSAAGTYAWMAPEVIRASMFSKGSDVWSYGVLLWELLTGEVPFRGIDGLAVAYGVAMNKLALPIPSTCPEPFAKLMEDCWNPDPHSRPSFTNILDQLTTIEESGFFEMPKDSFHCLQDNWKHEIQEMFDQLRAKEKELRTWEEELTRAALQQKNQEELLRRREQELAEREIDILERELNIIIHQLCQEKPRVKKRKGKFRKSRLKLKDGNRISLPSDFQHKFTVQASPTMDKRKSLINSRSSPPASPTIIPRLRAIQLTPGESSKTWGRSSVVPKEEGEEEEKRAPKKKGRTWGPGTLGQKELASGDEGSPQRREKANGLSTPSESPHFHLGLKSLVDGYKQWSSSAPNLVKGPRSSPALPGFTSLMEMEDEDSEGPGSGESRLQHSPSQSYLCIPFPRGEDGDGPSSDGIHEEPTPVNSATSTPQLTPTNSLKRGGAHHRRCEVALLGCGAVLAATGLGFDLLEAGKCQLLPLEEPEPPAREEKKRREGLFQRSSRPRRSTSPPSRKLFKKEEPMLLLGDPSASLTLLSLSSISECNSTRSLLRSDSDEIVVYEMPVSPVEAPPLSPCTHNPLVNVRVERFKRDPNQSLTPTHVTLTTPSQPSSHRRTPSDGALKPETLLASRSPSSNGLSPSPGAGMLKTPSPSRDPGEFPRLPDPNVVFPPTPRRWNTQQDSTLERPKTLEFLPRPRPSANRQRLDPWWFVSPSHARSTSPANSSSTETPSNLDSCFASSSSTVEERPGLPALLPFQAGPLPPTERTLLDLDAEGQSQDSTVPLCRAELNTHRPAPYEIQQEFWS

[8] = system: gastric cancer cell line Hs746T; test: Cancer cell proliferation inhibitory activity evaluation 2 (CCK-8), Hs746T; assay type: cell-based; conditions: Homo sapiens
Description: (§6) In order to identify whether the compounds have anticancer activity, the acute myeloid leukemia cell line U937, the acute lymphoblastic leukemia cell line Jurkat, the gastric cancer cell lines AGS, […], and the human lung cancer cell line A549 were used. The cell line was cultured using RPMI-1640 medium (U937, Jurkat, AGS, A549) or DMEM (Hs746T) medium containing 10% fetal bovine serum. Welgene products were used as the medium, and hyclone products were used for fetal bovine serum, and 1% of antibiotics for cell culture from Gibco were used as the culture medium.

[9] = system: human lung cancer cell line A549; test: Cancer cell proliferation inhibitory activity evaluation 2 (CCK-8), A549; assay type: cell-based
Description: as §6

[10] = U-937, 10 μM, 72 hours, CCK-8 (Table 3)
[11] = 10 μM, 72 hours, CCK-8, read-out: Cancer cell proliferation inhibitory activity Jurkat
[12] = 10 μM, 72 hours, CCK-8, read-out: Cancer cell proliferation inhibitory activity Hs746T
[13] = A549, 10 μM, 72 hours, CCK-8, read-out: Cancer cell proliferation inhibitory activity A549
[14] = 72 h, read-out: Cancer cell proliferation inhibitory activity Jurkat
[15] = 72 h, read-out: Cancer cell proliferation inhibitory activity Hs746T
[16] = A549, 72 h, read-out: Cancer cell proliferation inhibitory activity A549

Row | Structure (SMILES) | inhibition at 10 µM [1, 10] [%] | inhibition at 10 µM [4, 11] [%] | inhibition at 10 µM ([5]; 10 μM, 72 hours, CCK-8) [%] | IC50 (MLK1) [nM] | IC50 (MLK3) [nM] | inhibition at 10 µM [8, 12] [%] | inhibition at 10 µM [9, 13] [%] | also measured
1 | CCS(=O)(=O)N1CC[C@H](Nc2c(Br)cnc3[nH]c(-c4cc(C)n(-c5cc(Cl)ccc5Cl)c4C)nc23)C1 [Example 14, 6-bromo-2-(1-(2,5-dichlorophenyl)-2,5-dimethyl-1H-pyrrol-3-yl)-N—((S)-1-(ethylsulfonyl)pyrrolidine-3-yl)-3H-imidazo[4,5-b]pyridine-7-amine] | 10 to 50 | 10 to 50 | 10 to 50 | – | – | – | – | pIC50 (MLK3): 7.77; inhibition at 10 µM [2]: < 10%; inhibition at 10 µM [3]: 10 to 50%; inhibition at 10 µM [6]: 10 to 50%; inhibition at 10 µM [7]: < 10%
2 | CCS(=O)(=O)N1CC[C@H](Nc2c(Cl)cnc3nc(-c4cc(C)n(-c5cccc(C(=O)N6CCOCC6)c5)c4C)[nH]c23)C1 [Example 54, (S)-(3-(3-(6-chloro-7-((1-(ethylsulfonyl)pyrrolidine-3-yl)amino)-1H-imidazo[4,5-b]pyridine-2-yl)-2,5-dimethyl-1H-pyrrol-1-yl)phenyl) (morpholino) methanone] | – | – | – | – | – | – | – | remaining binding at 0.1 µM (LRRK2 wild-type): 24%; remaining binding at 0.5 µM (LRRK2 wild-type): 4.1%; remaining binding at 0.1 µM (LRRK2 mutant (G2019S)): 6.3%; remaining binding at 0.5 µM (LRRK2 mutant (G2019S)): 0.4%
3 | Cc1ccc(NC(=O)CN2CCN(C)CC2)cc1-n1c(C)cc(-c2nc3ncc(Br)c(Nc4cccc(S(N)(=O)=O)c4)c3[nH]2)c1C [Example 89, N-(3-(3-(6-bromo-7-((3-sulfamoylphenyl)amino)-1H-imidazo[4,5-b]pyridine-2-yl)-2,5-dimethyl-1H-pyrrol-1-yl)-4-methylphenyl)-2-(4-methylpiperazine-1-yl) acetamide] | < 10 | 10 to 50 | 10 to 50 | 169 | 81 | 10 to 50 | < 10 | –
4 | CCS(=O)(=O)N1CC[C@H](Nc2c(Br)cnc3nc(-c4cc(C)n(-c5cccc(C(=O)N6CCN(C)CC6)c5)c4C)[nH]c23)C1 [Example 68] | – | – | – | 25 | 16 | – | – | inhibition at 10 µM ([1]; U-937, 72 h): > 50%; inhibition at 10 µM [4, 14]: > 50%; inhibition at 10 µM [8, 15]: > 50%; inhibition at 10 µM ([5]; 72 h): > 50%; inhibition at 10 µM [9, 16]: > 50%
5 | CCS(=O)(=O)N1CC[C@H](Nc2c(Br)cnc3nc(-c4cc(C)n(-c5cc(NC(=O)CN(C)C)ccc5C)c4C)[nH]c23)C1 [Example 74, N-(3-(3-(6-bromo-7-(((S)-1-(ethylsulfonyl)pyrrolidine-3-yl)amino)-1H-imidazo[4,5-b]pyridine-2-yl)-2,5-dimethyl-1H-pyrrol-1-yl)-4-methylphenyl)-2-(dimethylamino) acetamide] | > 50 | > 50 | > 50 | 43 | 46 | > 50 | > 50 | –
6 | CCS(=O)(=O)N1CC[C@H](Nc2c(Br)cnc3[nH]c(-c4cc(C)n(-c5ccc(C(=O)N6CCOCC6)cc5C)c4C)nc23)C1 [Example 98, (4-(3-(6-bromo-7-(((S)-1-(ethylsulfonyl)pyrrolidine-3-yl)amino)-3H-imidazo[4,5-b]pyridine-2-yl)-2,5-dimethyl-1H-pyrrol-1-yl)-3-methylphenyl) (morpholino) methanone] | > 50 | > 50 | > 50 | – | – | > 50 | 10 to 50 | remaining binding at 0.1 µM (LRRK2 wild-type): 18%; remaining binding at 0.5 µM (LRRK2 wild-type): 3.5%; remaining binding at 0.1 µM (LRRK2 mutant (G2019S)): 8.2%; remaining binding at 0.5 µM (LRRK2 mutant (G2019S)): 1%
7 | Cc1ccc(C(=O)N2CCOCC2)cc1-n1c(C)cc(-c2nc3ncc(Br)c(Nc4cccc(S(N)(=O)=O)c4)c3[nH]2)c1C [Example 94, 3-((6-bromo-2-(2,5-dimethyl-1-(2-methyl-5-(morpholine-4-carbonyl)phenyl)-1H-pyrrol-3-yl)-1H-imidazo[4,5-b]pyridine-7-yl)amino)benzenesulfonamide] | 10 to 50 | 10 to 50 | 10 to 50 | 52 | 73 | > 50 | < 10 | remaining binding at 0.1 µM (LRRK2 wild-type): 70%; remaining binding at 0.5 µM (LRRK2 wild-type): 40%; remaining binding at 0.1 µM (LRRK2 mutant (G2019S)): 59%; remaining binding at 0.5 µM (LRRK2 mutant (G2019S)): 16%
8 | CCS(=O)(=O)N1CC[C@H](Nc2c(Br)cnc3nc(-c4cc(C)n(-c5ccc(NC(=O)CN6CCOCC6)cc5C)c4C)[nH]c23)C1 [Example 77, N—(4-(3-(6-bromo-7-(((S)-1-(ethylsulfony)pyrolidine-3-yl)amino)-1H-imidazo[4,5-b]pyridine-2-yl)-2,5-dimethyl-1H-pyrrol-1-yl)-3-methylphenyl)-2-morpholinoacetamide] | > 50 | > 50 | > 50 | 19 | 7 | 10 to 50 | 10 to 50 | –
9 | CCS(=O)(=O)N1CC[C@H](Nc2c(Br)cnc3[nH]c(-c4cc(C)n(-c5cccc(C(=O)NCCN6CCN(C)CC6)c5)c4C)nc23)C1 [Example 71, (S)-3-(3-(6-bromo-7-((1-(ethylsulfonyl)pyrrolidine-3-yl)amino)-3H-imidazo[4,5-b]pyridine-2-yl)-2,5-dimethyl-1H-pyrrol-1-yl)-N-(2-(4-methylpiperazine-1-yl)ethyl)benzamide] | – | – | – | 36 | 26 | – | – | inhibition at 10 µM ([1]; U-937, 72 h): 10 to 50%; inhibition at 10 µM [4, 14]: > 50%; inhibition at 10 µM [8, 15]: > 50%; inhibition at 10 µM ([5]; 72 h): > 50%; inhibition at 10 µM [9, 16]: < 10%
10 | CCS(=O)(=O)N1CC[C@H](Nc2c(Br)cnc3nc(-c4cc(C)n(-c5cccc(NC(=O)CN6CCOCC6)c5)c4C)[nH]c23)C1 [Example 66, (S)—N-(3-(3-(6-bromo-7-((1-(ethylsulfonyl)pyrrolidine-3-yl)amino)-1H-imidazo[4,5-b]pyridine-2-yl)-2,5-dimethyl-1H-pyrrol-1-yl)phenyl)-2-morpholinoacetamide] | – | – | – | 22 | 17 | – | – | inhibition at 10 µM ([1]; U-937, 72 h): 10 to 50%; inhibition at 10 µM [4, 14]: > 50%; inhibition at 10 µM [8, 15]: > 50%; inhibition at 10 µM ([5]; 72 h): > 50%; inhibition at 10 µM [9, 16]: 10 to 50%
11 | Cc1ccc(NC(=O)CN(C)C)cc1-n1c(C)cc(-c2nc3ncc(Br)c(Nc4cccc(S(N)(=O)=O)c4)c3[nH]2)c1C [Example 90, N-(3-(3-(6-bromo-7-((3-sulfamoylphenyl)amino)-1H-imidazo[4,5-b]pyridine-2-yl)-2,5-dimethyl-1H-pyrrol-1-yl)-4-methylphenyl)-2-(dimethylamino) acetamide] | 10 to 50 | > 50 | > 50 | 160 | 92 | 10 to 50 | 10 to 50 | –
